Data published in patent US8367873B2, “Phenyl-substituted bicyclooctane-1,3-dione derivatives” (Bayer Cropscience AG, priority 2008, dated 2013).

Legend:
Format in all cases: in vivo
[1] = test system: Alopecurus myosuroides; assay: Herbicidal post-emergence action; conditions: post-emergence method, 80 g/ha
Outline: (§1)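 One-leaf-stage greenhouse plants sprayed with WP at graded amounts (600 l/ha, 0.2% wetting agent); ~3 wk later, visual % effect rated vs untreated controls, 100% = dead, 0% = like control.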

[2] = test system: Lolium multiflorum; assay: Herbicidal post-emergence action; conditions: post-emergence method, 80 g/ha
Outline: as §1

[3] = test system: Setaria viridis; assay: Herbicidal post-emergence action; conditions: post-emergence method, 80 g/ha
Outline: as §1

[4] = test system: Echinocloa crus-galli; assay: Herbicidal post-emergence action; conditions: post-emergence method, 80 g/ha
Outline: as §1

[5] = test system: Alopecurus myosuroides; assay: Herbicidal pre-emergence action; conditions: pre-emergence method, 80 g/ha, greenhouse, visual assessment vs untreated controls
Outline: (§2)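 Visual percent effect relative to untreated controls (0% = like control, 100% = dead) assessed three weeks after treatment in the greenhouse. Compounds, as wettable powders in water (600 l/ha, 0.2% wetting agent), were sprayed at different amounts onto covering soil over seeds sown in sandy loam.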

[6] = test system: Lolium multiflorum; assay: Herbicidal pre-emergence action; conditions: pre-emergence method, 80 g/ha, greenhouse, visual assessment vs untreated controls
Outline: as §2

[7] = test system: Setaria viridis; assay: Herbicidal pre-emergence action; conditions: pre-emergence method, 80 g/ha, greenhouse, visual assessment vs untreated controls
Outline: as §2

[8] = test system: Echinocloa crus-galli; assay: Herbicidal pre-emergence action; conditions: pre-emergence method, 80 g/ha, greenhouse, visual assessment vs untreated controls
Outline: as §2

[9] = test system: monocotylidonous and dicotylidonous weed and crop plants; assay: Herbicidal pre-emergence action (other test plants); conditions: pre-emergence method, 80 g/ha, greenhouse, visual assessment vs untreated controls
Outline: as §2

[10] = test system: monocotylidonous and dicotylidonous weed and crop plants; assay: Herbicidal post-emergence action (other test plants); conditions: post-emergence method, 80 g/ha
Outline: as §1

Structure (SMILES)	herbicidal effect against ALOMY (Alopecurus myosuroides) [1] [%]	herbicidal effect against LOLMU (Lolium multiflorum) [2] [%]	herbicidal effect against SETVI (Setaria viridis) [3] [%]	herbicidal effect against ECHCG (Echinochloa crus-galli) [4] [%]	herbicidal effect ALOMY [5] [%]	herbicidal effect LOLMU [6] [%]	herbicidal effect SETVI [7] [%]	herbicidal effect ECHCG [8] [%]	herbicidal effect AVEFA [9] [%]	herbicidal effect against AVEFA (Avena fatua) [10] [%]
CCc1cc(C)cc(CC)c1C1=C(OC(=O)C(C)(C)C)C2CC3(CC2C1=O)OCCCO3 (centres unmarked) [I-b-22]	100	100	100	100	100	100	80	100	70	100
CCc1cc(C)cc(CC)c1C1=C(OC(C)=O)C2CC3(CC2C1=O)OCCCO3 (centres unmarked) [I-b-23]	100	100	100	100	90	100	50	100	70	100
CCC(=O)OC1=C(c2c(CC)cc(C)cc2CC)C(=O)C2CC3(CC12)OCCCO3 (centres unmarked) [I-b-24]	100	100	100	100	70	100	40	100	70	100
CCc1cc(C)cc(CC)c1C1=C(OC(=O)C(C)(C)CCl)C2CC3(CC2C1=O)OCCCO3 (centres unmarked) [I-b-25]	100	100	100	100	90	100	60	100	70	100
CCc1cc(C)cc(CC)c1C1=C(OC(=O)COC)C2CC3(CC2C1=O)OCCCO3 (centres unmarked) [I-b-28]	100	100	100	100	90	100	70	100	50	100
CCc1cc(C)cc(CC)c1C1=C(OC(=O)C(C)(C)CC)C2CC3(CC2C1=O)OCCCO3 (centres unmarked) [I-b-30]	20	100	90	100	100	100	90	100	70	100
C=C1CC2C(=O)C(c3c(C)cc(C)cc3C)=C(OC(=O)C(C)(C)C)C2C1 (centres unmarked) [I-b-37]	0	70	90	90	90	70	70	70	40	0
C=C1CC2C(=O)C(c3c(C)cc(C)cc3C)=C(OC(=O)C(C)C)C2C1 (centres unmarked) [I-b-38]	40	70	90	90	80	60	80	80	70	0
Cc1cc(C)c(C2=C(OC(=O)C(C)C)C3CC4(CC3C2=O)OCCO4)c(C)c1 (centres unmarked) [I-b-39]	60	100	90	100	60	80	0	10	50	20
Cc1cc(C)c(C2=C(OC(=O)C(C)(C)C)C3CC4(CC3C2=O)OCCCCO4)c(C)c1 (centres unmarked) [I-b-40]	40	100	80	90	90	100	30	50	50	20
Cc1cc(C)c(C2=C(OC(=O)C(C)C)C3CC4(CC3C2=O)OCCCCO4)c(C)c1 (centres unmarked) [I-b-41]	40	100	80	100	50	100	50	0	40	0
Cc1cc(C)c(C2=C(OC(=O)C(C)C)C3CC4(CC3C2=O)OCC(C)CO4)c(C)c1 (centres unmarked) [I-b-43]	100	100	100	90	90	90	60	20	40	80
C=C1CC2C(=O)C(c3c(C)cc(C)cc3OC)=C(OC(=O)C(C)C)C2C1 (centres unmarked) [I-b-62]	30	90	90	100	50	70	80	70	40	0
COc1cc(C)cc(C)c1C1=C(OC(=O)C(C)C)C2CC3(CC2C1=O)OCCCO3 (centres unmarked) [I-b-64]	100	100	100	100	60	100	90	0	50	100
